# Data published in patent publication US10787452B2 (Vertex Pharmaceuticals Incorporated, priority 2012, dated 2020).
# System: HCT116 colorectal cancer cells
# Assay: Cisplatin sensitization assay (96 h cell viability MTS);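 note: compound concentration needed to lower the Cisplatin-alone IC50 by a set fold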
# Format: cell-based
# Conditions: 96 h MTS, compound plus Cisplatin
# How it was run: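 Full-matrix combination: compound × cisplatin, 2-fold dilutions from 10 μM top final, co-added; 96 h, 37° C, 5% CO2; MTS read-out after 1 h.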
row,Structure (SMILES),Cisplatin Sensitization Assay
1,"CN1CCN(c2c(NC(=O)c3c(N)nn4cc(F)cnc34)cncc2C(F)F)CC1 [I-N-111, 2-amino-N-(5-(difluoromethyl)-4-(4-methylpiperazin-1-yl)pyridin-3-yl)-6-fluoropyrazolo[1,5-a]pyrimidine-3-carboxamide]",++ (Compounds with a Cisplatin sensitization value >0.02 μM but <0.2 μM are marked with “++.”)
2,"CN1CCN(c2c(C#N)cncc2NC(=O)c2c(N)nn3cc(F)cnc23)CC1 [I-N-113, 2-amino-N-(5-cyano-4-(4-methylpiperazin-1-yl)pyridin-3-yl)-6-fluoropyrazolo[1,5-a]pyrimidine-3-carboxamide]",+ (Compounds with a Cisplatin sensitization value >0.2 μM but <5 μM are marked with “+.”)
3,"Nc1nn2cc(F)cnc2c1C(=O)Nc1cnccc1N1CCN2CCOC[C@@H]2C1 [I-N-115, (S)-2-amino-6-fluoro-N-(4-(hexahydropyrazino[2,1-c][1,4]oxazin-8(1H)-yl)pyridin-3-yl)pyrazolo[1,5-a]pyrimidine-3-carboxamide]",+++ (Compounds with a Cisplatin sensitization value of <0.02 μM are marked with “+++.”)
4,"Nc1nn2cc(F)cnc2c1C(=O)Nc1cnccc1N1CCN2CCOC[C@H]2C1 [I-N-116, (R)-2-amino-6-fluoro-N-(4-(hexahydropyrazino[2,1-c][1,4]oxazin-8(1H)-yl)pyridin-3-yl)pyrazolo[1,5-a]pyrimidine-3-carboxamide]",++ (Compounds with a Cisplatin sensitization value >0.02 μM but <0.2 μM are marked with “++.”)
5,"Nc1nn2cc(Cl)cnc2c1C(=O)Nc1cncc(F)c1N1CCN(C2COC2)CC1 [I-N-117, 2-amino-6-chloro-N-(5-fluoro-4-(4-(oxetan-3-yl)piperazin-1-yl)pyridin-3-yl)pyrazolo[1,5-a]pyrimidine-3-carboxamide]",+++ (Compounds with a Cisplatin sensitization value of <0.02 μM are marked with “+++.”)
6,"Nc1nn2cc(F)cnc2c1C(=O)Nc1cncc(F)c1N1CCNCC1 [I-N-118, 2-amino-6-fluoro-N-(5-fluoro-4-(piperazin-1-yl)pyridin-3-yl)pyrazolo[1,5-a]pyrimidine-3-carboxamide]",+++ (Compounds with a Cisplatin sensitization value of <0.02 μM are marked with “+++.”)
7,"Nc1nn2cc(F)cnc2c1C(=O)Nc1cncc(C2CC2)c1N1CCN([C@@H]2CCOC2)CC1 [I-N-119, (R)-2-amino-N-(5-cyclopropyl-4-(4-(tetrahydrofuran-3-yl)piperazin-1-yl)pyridin-3-yl)-6-fluoropyrazolo[1,5-a]pyrimidine-3-carboxamide]",++ (Compounds with a Cisplatin sensitization value >0.02 μM but <0.2 μM are marked with “++.”)
8,"Nc1nn2cc(F)cnc2c1C(=O)Nc1cncc(C2CC2)c1N1CCN([C@H]2CCOC2)CC1 [I-N-120, (S)-2-amino-N-(5-cyclopropyl-4-(4-(tetrahydrofuran-3-yl)piperazin-1-yl)pyridin-3-yl)-6-fluoropyrazolo[1,5-a]pyrimidine-3-carboxamide]",+++ (Compounds with a Cisplatin sensitization value of <0.02 μM are marked with “+++.”)
9,"Nc1nn2cc(F)cnc2c1C(=O)Nc1cncc(F)c1N1CCN(C2CCOCC2)CC1 [I-N-121, 2-amino-6-fluoro-N-(5-fluoro-4-(4-(tetrahydro-2H-pyran-4-yl)piperazin-1-yl)pyridin-3-yl)pyrazolo[1,5-a]pyrimidine-3-carboxamide]",+++ (Compounds with a Cisplatin sensitization value of <0.02 μM are marked with “+++.”)
10,"Nc1nn2cc(F)cnc2c1C(=O)Nc1cncc(F)c1N1CCN(C2CCOC2)CC1 (centres unmarked) [I-N-122, 2-amino-6-fluoro-N-(5-fluoro-4-(4-(tetrahydrofuran-3-yl)piperazin-1-yl)pyridin-3-yl)pyrazolo[1,5-a]pyrimidine-3-carboxamide]",++ (Compounds with a Cisplatin sensitization value >0.02 μM but <0.2 μM are marked with “++.”)
11,"Cc1cncc(NC(=O)c2c(N)nn3cc(F)cnc23)c1N1CCN(C2CCOCC2)CC1 [I-N-123, 2-amino-6-fluoro-N-(5-methyl-4-(4-(tetrahydro-2H-pyran-4-yl)piperazin-1-yl)pyridin-3-yl)pyrazolo[1,5-a]pyrimidine-3-carboxamide]",++ (Compounds with a Cisplatin sensitization value >0.02 μM but <0.2 μM are marked with “++.”)
12,"Nc1nn2cc(F)cnc2c1C(=O)Nc1cncc(Cl)c1N1CCN(C2CCOC2)CC1 (centres unmarked) [I-N-124, 2-amino-N-(5-chloro-4-(4-(tetrahydrofuran-3-yl)piperazin-1-yl)pyridin-3-yl)-6-fluoropyrazolo[1,5-a]pyrimidine-3-carboxamide]",+++ (Compounds with a Cisplatin sensitization value of <0.02 μM are marked with “+++.”)
13,"Nc1nn2cc(F)cnc2c1C(=O)Nc1cncc(F)c1N1CCN([C@H]2CCOC2)CC1 [I-N-125, (S)-2-amino-6-fluoro-N-(5-fluoro-4-(4-(tetrahydrofuran-3-yl)piperazin-1-yl)pyridin-3-yl)pyrazolo[1,5-a]pyrimidine-3-carboxamide]",+++ (Compounds with a Cisplatin sensitization value of <0.02 μM are marked with “+++.”)
14,"Nc1nn2cc(F)cnc2c1C(=O)Nc1cncc(Cl)c1N1CCNCC1 [I-N-126, 2-amino-N-(5-chloro-4-(piperazin-1-yl)pyridin-3-yl)-6-fluoropyrazolo[1,5-a]pyrimidine-3-carboxamide]",+++ (Compounds with a Cisplatin sensitization value of <0.02 μM are marked with “+++.”)
15,"COCCN1CCN(c2c(F)cncc2NC(=O)c2c(N)nn3cc(F)cnc23)CC1 [I-N-127, 2-amino-6-fluoro-N-(5-fluoro-4-(4-(2-methoxyethyl)piperazin-1-yl)pyridin-3-yl)pyrazolo[1,5-a]pyrimidine-3-carboxamide]",+++ (Compounds with a Cisplatin sensitization value of <0.02 μM are marked with “+++.”)
16,"CN1CCC(C(=O)N2CCN(c3c(F)cncc3NC(=O)c3c(N)nn4cc(F)cnc34)CC2)CC1 [I-N-128, 2-amino-6-fluoro-N-(5-fluoro-4-(4-(1-methylpiperidine-4-carbonyl)piperazin-1-yl)pyridin-3-yl)pyrazolo[1,5-a]pyrimidine-3-carboxamide]",+++ (Compounds with a Cisplatin sensitization value of <0.02 μM are marked with “+++.”)
17,"Nc1nn2cc(F)cnc2c1C(=O)Nc1cncc(F)c1N1CCN(C(=O)C2CN3CCC2CC3)CC1 (centres unmarked) [I-N-130, 2-amino-6-fluoro-N-(5-fluoro-4-(4-(quinuclidine-3-carbonyl)piperazin-1-yl)pyridin-3-yl)pyrazolo[1,5-a]pyrimidine-3-carboxamide]",++ (Compounds with a Cisplatin sensitization value >0.02 μM but <0.2 μM are marked with “++.”)
18,CN1CC[C@@H](OC2CCN(c3ccncc3NC(=O)c3c(N)nn4cc(F)cnc34)CC2)C1 [I-N-131],+++ (Compounds with a Cisplatin sensitization value of <0.02 μM are marked with “+++.”)
19,"CN1CC[C@@H](OC2CCN(c3c(F)cncc3NC(=O)c3c(N)nn4cc(F)cnc34)CC2)C1 [I-N-132, (R)-2-amino-6-fluoro-N-(5-fluoro-4-(4-((1-methylpyrrolidin-3-yl)oxy)piperidin-1-yl)pyridin-3-yl)pyrazolo[1,5-a]pyrimidine-3-carboxamide]",+++ (Compounds with a Cisplatin sensitization value of <0.02 μM are marked with “+++.”)
20,"CN1CCN(c2ccncc2NC(=O)c2c(N)nn3cc(F)cnc23)CC12CCOCC2 [I-N-133, 2-amino-6-fluoro-N-(4-(1-methyl-9-oxa-1,4-diazaspiro[5.5]undecan-4-yl)pyridin-3-yl)pyrazolo[1,5-a]pyrimidine-3-carboxamide]",++ (Compounds with a Cisplatin sensitization value >0.02 μM but <0.2 μM are marked with “++.”)
21,"Nc1nn2cc(F)cnc2c1C(=O)Nc1cncc(F)c1N1CCN(C(=O)C23CCN(CC2)CC3)CC1 [I-N-134, 2-amino-6-fluoro-N-(5-fluoro-4-(4-(quinuclidine-4-carbonyl)piperazin-1-yl)pyridin-3-yl)pyrazolo[1,5-a]pyrimidine-3-carboxamide]",+ (Compounds with a Cisplatin sensitization value >0.2 μM but <5 μM are marked with “+.”)
22,"Nc1nn2cc(F)cnc2c1C(=O)Nc1cncc(F)c1N1CCN2CCOC[C@H]2C1 [I-N-135, (R)-2-amino-6-fluoro-N-(5-fluoro-4-(hexahydropyrazino[2,1-c][1,4]oxazin-8(1H)-yl)pyridin-3-yl)pyrazolo[1,5-a]pyrimidine-3-carboxamide]",+++ (Compounds with a Cisplatin sensitization value of <0.02 μM are marked with “+++.”)
23,"Nc1nn2cc(F)cnc2c1C(=O)Nc1cnccc1N1CCN2C(=O)COCC2C1 (centres unmarked) [I-N-136, 2-amino-6-fluoro-N-(4-(4-oxohexahydropyrazino[2,1-c][1,4]oxazin-8(1H)-yl)pyridin-3-yl)pyrazolo[1,5-a]pyrimidine-3-carboxamide]",++ (Compounds with a Cisplatin sensitization value >0.02 μM but <0.2 μM are marked with “++.”)
24,"Nc1nn2cc(F)cnc2c1C(=O)Nc1cncc(F)c1N1CCN2CCOC[C@@H]2C1 [I-N-137, (S)-2-amino-6-fluoro-N-(5-fluoro-4-(hexahydropyrazino[2,1-c][1,4]oxazin-8(1H)-yl)pyridin-3-yl)pyrazolo[1,5-a]pyrimidine-3-carboxamide]",++ (Compounds with a Cisplatin sensitization value >0.02 μM but <0.2 μM are marked with “++.”)
25,"CN1CCN(c2c(F)cncc2NC(=O)c2c(N)nn3cc(C(C)(C)C#N)cnc23)CC1 [I-N-138, 2-amino-6-(2-cyanopropan-2-yl)-N-(5-fluoro-4-(4-methylpiperazin-1-yl)pyridin-3-yl)pyrazolo[1,5-a]pyrimidine-3-carboxamide]",++ (Compounds with a Cisplatin sensitization value >0.02 μM but <0.2 μM are marked with “++.”)
26,"CC(C)(O)CN1CCN(c2c(F)cncc2NC(=O)c2c(N)nn3cc(F)cnc23)CC1 [I-N-139, 2-amino-6-fluoro-N-(5-fluoro-4-(4-(2-hydroxy-2-methylpropyl)piperazin-1-yl)pyridin-3-yl)pyrazolo[1,5-a]pyrimidine-3-carboxamide]",+++ (Compounds with a Cisplatin sensitization value of <0.02 μM are marked with “+++.”)
